The values below come from patent publication US20260072027A1, “Peptides And Method” (Queen Mary University of London, priority 2022, published 2026).

One test deals with serum IgG autoantibodies. The test is described as follows: ELISA for autoantibody detection: serum antibody binding to native and oxPTM insulin peptides. The settings on record: for % binders, Healthy controls / Mean ± SEM (absorbance, OD), Healthy controls / % binders, Type 1 diabetes: Study cohort 1; for % binders, Type 1 diabetes: cut-off = mean of healthy controls to Nt-INSP plus 3 SEM; for Mean ± SEM (absorbance, OD), Type 1 diabetes: Study cohort 1 sera. On the set-up: species or system human. Here is the method: ELISA for autoantibody detection. The ELISA analysis of Nt-INS and oxPTM-INS autoantibodies was performed as previously described [18](detailed in ESM methods, ELISA assay for antibody detection).
Statistical analyses. Statistical analyses were performed using Prism Software 9.0 (GraphPad, San Diego, CA, USA). Cut-off points of positivity (binders) in the antibody ELISA for each peptide were defined by the mean of optical absorbance (O.D) of healthy controls to the corresponding Nt-INSP plus three times the standard error of the mean (SEM). Specificity and sensitivity were evaluated by receiver operating characteristic (ROC) curve analysis. Area under the curve (AUC) is reported as absolute value and was tested for equality according to DeLong et al. Differences in antibody levels and T-cell stimulation indices (SI) between groups were tested by the One way ANOVA or Student's t-tests as appropriate. Correlation analyses were tested by Pearson or Spearman's test, as appropriate. Categorical analyses were performed by Chi-square or McNemar's tests, as appropriate. For each set of experiments, p values were adjusted for multiple comparison using the Holm-Sidak's test. Hierarchical cluster and Principal Component Analysis (PCA) was done using Clustvis software (https://biit.cs.ut.ee/clustvis/) and Prism Software 9.0, respectively.
Antibody reactivity of type 1 diabetes serum against the candidate oxPTM-INSP. Identified peptide candidates were synthesised and exposed to either HOCl or ^●OH to generate oxPTM-INSPs that were first assessed by TOF-MS/ES+TIC to confirm modification (FIG. 17). Antibody response against native INSPs (Nt-INSPs) and oxPTM-INSPs was evaluated by ELISA using sera from Study cohort 1.
ESM Methods ELISA assay for antibody detection. The ELISA analysis of native (Nt-INS) and modified insulin (oxPTM-INS) was performed as previously described. Briefly, the ELISA plate was coated overnight at 4° C. with 100 μl per well of modified or native insulin in 0.05 M carbonate/bicarbonate buffer pH 9.6 at 10 μg/ml. The next day, the plates were washed 3 times with 0.1% Tween PBS, followed by blocking for 2 hours at room temperature with 200 μl per well of 5% BSA in 0.1% Tween PBS. After washing, 100 μl of 1:200-diluted serum samples in 5% BSA-0.1% Tween PBS were added for additional 2 hours incubation. ELISA plates were then washed 3 times with 0.1% Tween PBS followed by probing with anti-human IgG horse radish peroxidase conjugated (HRP, Sigma) at 1:1,000 dilution in 5% BSA-0.1% Tween PBS for another 1.5 hours incubation. The ELISA plates were washed, and 100 μg/ml TMB substrate in 0.1M sodium acetate pH 6.0 plus 2 μl/10 ml of H2O2, were added. Subsequently, the reaction was stopped with 20% v/v sulphuric acid. The optical density (O.D.) was measured at 450 nm using a GENios plate reader and Magellan software (TECAN, Dorset, UK).

In test [1] the test system is autoantibodies to oxPTM-INS. Briefly: Competitive displacement ELISA, plate coated with oxidised insulin. It is filed as binding, human. The settings on record: for inhibition of type 1 diabetes serum binding to oxPTM-INS (in words): sera pre-incubated with peptide competitor. Here is the method:
A competitive displacement assay was performed to map the exact epitope, namely the exact amino acid sequence binding specificities and to test the binding to native peptides versus oxidised insulin peptides. The binding to the peptide was done by direct ELISA on the native or modified peptides or by competition ELISA. Initially native synthetic peptide was oxidised by exposing to 0.05 mM CuCl2; 90 mM H2O2; 10 mM NaOCl. Native and modified peptides were fractionated by AKTA to evaluated changes in molecular profile. AKTA fractions were then tested by ELISA for reactivity (FIGS. 2 and 3). We next perform competition ELISA with the native peptides and peptides exposed to 0.05 mM CuCl2; 90 mM H2O2; 10 mM NaOCl. Serum samples were pre-incubated with either native insulin peptides or oxidised insulin peptides. Finally, based on the amino acid sequence of the identified peptides we predicted the amino acids that would be oxidised by ^●OH and HOCl and designed synthetic peptides that contain the oxidised amino acids in the synthesis. Synthetic peptides were produced by standard commercially available methods, specifically by Peptide Protein Research Ltd. Briefly, peptide synthesis was performed by automated solid phase peptide synthesis (SPPS), which was followed by purification. Each individual amino acid was added to the growing chain according to the sequence. Where specified, dihydroxyphenylalanine was added to replace Tyr or cysteate were added to replace Cys. Similarly, these peptides were tested by competition ELISA. The table below describe the different competition ELISA performed:
Serum samples from children with type 1 diabetes were pre-incubated with the synthetic peptides before they were added to the native insulin or oxidised that were previously coated on the ELISA plate. If the antibodies in the serum sample bind to the peptide they will no longer bind to the insulin or oxidised insulin on the plate-competition ELISA. 1:200 dilutions of serum samples from T1D serum samples were pre-incubated for 2 hr at room temperature with the various peptides as shown in the table above. After incubation, serum/peptide mix was added to the ELISA plate previously coated overnight with either native insulin or oxidised insulin for an additional 2 hr incubation. Plates were then washed in a plate washer three times with PBS 0.05% tween. After washing, 100 ul of anti-human IgG diluted 1:1000 in 1% milk-PBS 0.05% tween were added for additional 1 hour and 30 min incubation. After washing, ELISA was developed by adding 100 ul of TMB (10 mg/ml in DMSO) in 10 ml of 0.1 M sodium acetate plus 2 ul of H2O2. Reaction was stopped by adding 0.5 M H2SO4 (usually 20 min for insulin ELISA).
To assess the binding specificity of serum samples to identified peptides, a competitive ELISA was performed. The ELISA was carried out following the method described above, except that the serum samples were pre-incubated for 2 h with and without 10 μg/ml peptides as competitors, before adding the serum samples to the insulin coated ELISA plate.
(In general: ELISA stands for enzyme-linked immunosorbent assay.)

The subject of a further test is CD4+ T-cells (PBMCs). Briefly: In vitro peptide stimulation and T-cell proliferation assay, CD4+. The class given is cell-based, human. The source says: (§1) In vitro peptide stimulation and T-cell proliferation assay. Peripheral blood mononuclear cells (PBMCs) were freshly isolated from type 1 diabetes and healthy individuals using Ficoll-Hypaque density gradient centrifugation. PBMCs were labelled with the fluorescent dye CellTrace Violet (Invitrogen, Thermo Fisher Scientific) and cultured (2×10^5 cells/well) in round-bottom 96-well plates (Falcon, Becton Dickinson) with RPMI-1640 medium (Gibco, Thermo Fisher Scientific) supplemented with 5% autologous plasma in the presence or not of insulin peptides (20 μg/ml); PPD (10 μg/ml) and anti-CD3 (0.1 μg/ml; clone OKT3) were used as positive control. Two scrambled peptides: […] (SEQ ID NO: 17), […] (SEQ ID NO: 18), and the Exendin 9-39 fragment were used as negative controls. After 7 days, PBMCs were stained with PE-Cy7 anti-CD8 (clone RPA-T8, BD Pharmingen) and FITC anti-CD3 (clone UCHT1, BD Pharmingen). Samples were analysed by using a FACSCanto II (BD Bioscience) to evaluate T-cell proliferation measured as CellTrace Violet dilution. Cytofluorimetric analyses were performed using FlowJo Software (FlowJo, LLC). The results were given as stimulation index (SI), calculated as percentage of stimulated T-cell subset proliferation/percentage of unstimulated T-cell subset proliferation. Assay for detection of peptide specific T cells subsets was done as previously described (detailed in ESM methods, Assay for detection of peptide specific T cells)
(§2) T-cell stimulation with oxPTM-INSPs. To evaluate the immune cell response against the oxPTM-INSPs, we performed CD4+ and CD8+ T cells proliferation experiments using freshly isolated PBMCs (Study cohort 2, Table 1). Response was calculated as stimulatory index (SI) over unstimulated T-cells.

The subject of the next test is CD8+ T-cells (PBMCs). Briefly: In vitro peptide stimulation and T-cell proliferation assay, CD8+. The class given is cell-based, human.
From the text: as §1, §2

Where no end group is shown, it is not given here.

For “ERGFFYTPKT (Ac-ERGFFYTPKT) [insulin B:21-30 native peptide]”, in the test with serum IgG autoantibodies (in house modifications), the “% binders, Healthy controls” value stood at 10%; the “Mean ± SEM (absorbance, OD), Healthy controls” value (shortened to “Mean ± SEM … Healthy controls”) worked out at 0.263 ± 0.023; the “% binders, Type 1 diabetes” value turned out to be 66%; the “Mean ± SEM (absorbance, OD), Type 1 diabetes” value (from here on “Mean ± SEM … Type 1 diabetes”) came out at 0.435 ± 0.014. Also, in the test on serum IgG autoantibodies (in silico modifications), the “% binders, Healthy controls” value was 16%; the “Mean ± SEM … Healthy controls” value is 0.263 ± 0.020; the “% binders, Type 1 diabetes” value was 63%; the “Mean ± SEM … Type 1 diabetes” value is listed as 0.423 ± 0.012. Moreover, in test [1] (type 1 diabetes sera pre-incubated with peptide), the “reduced binding to oxidised whole insulin” value is recorded as 35-70%.
Turning to “Nt-INSP-6: native insulin peptide 6; printed as ERGFFYTPKT (SEQ ID NO: 5) and, in Tables 5 and 6, ERGFFYTPKTR (SEQ ID NO: 8)”, in the test with serum IgG autoantibodies (Study cohort 2, N = 18), the “type 1 diabetes binders (IgG autoantibody reactivity)” value was “none”. For the same substance, in test [1], the “inhibition of type 1 diabetes serum binding to oxPTM-INS (in words)” value is recorded as “not”. The “CD4+ T-cell response, subjects with SI > 3 (%)” value with CD4+ T-cells (PBMCs) (Type 1 diabetes (N = 18)) is recorded as 27.8%.
As to “SLYQLENYCN (Ac-SLYQLENYCN) [insulin A:12-21 native peptide]”, in the test on serum IgG autoantibodies (in house modifications), the “% binders, Healthy controls” value was 19%; the “Mean ± SEM … Healthy controls” value was 0.333 ± 0.030; the “% binders, Type 1 diabetes” value was determined as 42%; the “Mean ± SEM … Type 1 diabetes” value is recorded as 0.405 ± 0.029. Moreover, in the test on serum IgG autoantibodies (in silico modifications), the “% binders, Healthy controls” value is listed as 9%; the “Mean ± SEM … Healthy controls” value is given as 0.143 ± 0.007; the “% binders, Type 1 diabetes” value is given as 49%; the “Mean ± SEM … Type 1 diabetes” value is listed as 0.242 ± 0.019. Moreover, in the test on CD8+ T-cells (PBMCs) (Controls (N = 11)), the “CD8+ T-cell response, subjects with SI > 1 (%)” value was “(36.4%)”; the “CD8+ T-cell response, subjects with SI > 3 (%)” value was “(36.4%)”; the “CD8+ T-cell response, subjects with SI > 5 (%)” value was “(36.4%)”; the “CD8+ T-cell response, subjects with SI > 10 (%)” value is listed as “(18.2%)”. In the test on CD8+ T-cells (PBMCs) (Type 1 diabetes (N = 18)), the “CD8+ T-cell response, subjects with SI > 1 (%)” value is given as “(50.0%)”; the “CD8+ T-cell response, subjects with SI > 3 (%)” value was “(22.2%)”; the “CD8+ T-cell response, subjects with SI > 5 (%)” value is “(11.1%)”; the “CD8+ T-cell response, subjects with SI > 10 (%)” value was “(5.6%)”. In addition, the “inhibition of type 1 diabetes serum binding to oxPTM-INS (in words)” value in test [1] is “not”. Besides, in the test on CD4+ T-cells (PBMCs) (Controls (N = 11)), the “CD4+ T-cell response, subjects with SI > 1 (%)” value is on record as “(54.5%)”; the “CD4+ T-cell response, subjects with SI > 3 (%)” value was “(18.2%)”; the “CD4+ T-cell response, subjects with SI > 5 (%)” value was “(9.1%)”; the “CD4+ T-cell response, subjects with SI > 10 (%)” value is “(0.0%)”. For the same substance, in the test with CD4+ T-cells (PBMCs) (Type 1 diabetes (N = 18)), the “CD4+ T-cell response, subjects with SI > 1 (%)” value is “(72.2%)”; the “CD4+ T-cell response, subjects with SI > 3 (%)” value was “(27.8%)”; the “CD4+ T-cell response, subjects with SI > 5 (%)” value was “(21.1%)”; the “CD4+ T-cell response, subjects with SI > 10 (%)” value is recorded as “(16.7%)”.
